Source: US10730892B2, “Homoallylamines as formaldehyde-responsive triggers” (The Regents of the University of California, priority 2015, dated 2020)
Where two headings read alike, the source gives them in different places.

Experiments:
[1] = Fluorescence properties of compounds 3, 4, 5 and FP1 (Table 1); assay type: physicochemical
From the text: Such red-shifted fluorophores are desirable because of low autofluorescence, minimal phototoxicity, and negligible interference from biomolecules when employed in live cell imaging. […] In the presence of FA, a reversible condensation event yielded an iminium intermediate which can undergo a charge-promoted [3,3]-sigmatropic rearrangement-hydrolysis sequence to expel the aryl nitro group and afford a highly fluorescent indole-3-carboxaldehyde product (ΦF=0.11) (Table 1). Of note, the aldehyde is strategically positioned at C3 such that after the reaction cascade, the N1 lone pair electrons can delocalize into the π-system rather than quench fluorescence via an acceptor-excited PeT (a-PeT) pathway. In this regard, silicon rhodol 3, without the carboxaldehyde, is non-fluorescent (Table 1).

MCF7 cells = experiment: Confocal microscopy of FAP-1 in LSD1 inhibitor-treated MCF7 cells (endogenous FA); assay type: cell-based, human; details: 10 μM FAP-1 60 min
From the text: Scale bar represents 50 μm in all images. […] Scale bar represents 50 μm in all images. […] Error bars denote SEM, n=6. *P<0.005

HEK293T cells [2] = details: 10 μM FAP-1 30 min, FA 200 μM to 1 mM
Protocol: Statistical analyses for multiple comparisons were performed using one-way ANOVA with the Bonferroni correction in the statistical analysis software, R.

[3] = Protocol: Milli-Q water was used to prepare all aqueous solutions. All spectroscopic measurements were performed in 20 mM PBS, pH 7.4. Absorption spectra were recorded using a Varian Cary 50 spectrophotometer, and fluorescence spectra were recorded using a Photon Technology International Quanta Master 4 L-format scan spectrofluorometer equipped with an LPS-220B 75-W xenon lamp and power supply, A-1010B lamp housing with integrated igniter, switchable 814 photocounting/analog photomultiplier detection unit, and MD5020 motor driver. Samples for absorption and emission measurements were contained in 1-cm×1-cm quartz cuvettes (1.4-mL volume, Starna).
Quantum yield was determined using zinc phthalocyanine (ZnPc) as a standard according to a published method (Williams et al., Analyst. 1983, 108:1067-1071). For FAP-1 and ZnPc, the absorbance spectra were measured within an absorbance range below 0.1. The quantum yield was calculated according to the equation: ϕsample=ϕstandard (Gradsample/Gradstandard)(ηsample^2/ηstandard^2); where ϕ is the quantum yield, ϕstandard=0.34 in 1% pyridine/toluene (Bishop et al., J. Photochem. Photobiol. 1995, 90:39-44), Grad is the slope of the plot of absorbance versus integrated emission intensity, and η is the refractive index of the solvent.

[4] = remark: listed apart in the source
Protocol: A modified version of the shake method was used to determine the partition coefficient or log Doct/wat value for FAP-1 (Rothbard et al., J. Am. Chem. Soc. 2004, 126:9506-9507). Briefly, 1-octanol-saturated PBS (248 μL), PBS-saturated 1-octanol (248 μL), and 1 mM solution of FAP-1 in DMSO (5 μL) were added to a 0.6-mL microcentrifuge tube. The dye was partitioned between the layers via vortexing for 30 s. The microcentrifuge tube was centrifuged on a bench-top minifuge at 4 k rpm for 4 minutes to separate the layers. A portion of the 1-octanol layer (200 μL) was transferred to a 96-well plate, and the fluorescence emission from 665-700 nm was measured (excitation at 645 nm) using a Synergy Mx multimode microplate reader (BioTek Instruments, Inc.) equipped with fluorescence module. The concentration of dye in the 1-octanol layer was determined by comparison with a standard curve constructed from six data points.

[5] = remark: listed apart in the source
Protocol: (§1) 999 μL of a 10.01 μM solution of FAP-1 (for 4-hydroxynonenal cuvette: 998.4 μL of a 10.02 μM solution of FAP-1; for glutathione cuvette: 950 μL of a 10.53 μM solution of FAP-1) in 20 mM PBS (pH 7.4) was prepared by diluting a 10 mM DMSO stock solution of FAP-1 into pre-warmed PBS (37° C.) in a 1-cm×1-cm quartz cuvette. The analyte of interest was added to the cuvette to bring the concentration of analyte to 100 μM (unless otherwise specified) and the concentration of FAP-1 to 10 μM, followed by mixing by vigorous pipetting for 5 seconds, and a t=0 spectrum was acquired. The cuvette was placed in a 37° C. water bath. Emission spectra were recorded by quickly removing the cuvette from the water bath, obtaining the spectrum, and returning the cuvette to the bath. Spectra were taken at t=0, 20, 45, 60, 90, and 120 min (see FIG. 24B).
1 μL of 100 mM stock solution of methylglyoxal in Milli-Q water (freshly prepared by diluting 7.7 μL of neat methylglyoxal to 500 μL with Milli-Q water) was added to 999 μL of a 10.01 μM solution of FAP-1 in PBS.

[6] = remark: listed apart in the source
Protocol: 999 μL of a 10.01 μM solution of FAP-1 in 20 mM PBS (pH 7.4) was prepared by diluting a 10 mM dimethylsulfoxide (DMSO) stock solution of FAP-1 into pre-warmed PBS (37° C.) in a 1-cm×1-cm quartz cuvette. 1 μL of 100 mM stock solution of FA (freshly prepared by diluting commercial 37 wt. % in H2O FA solution) was added (for a final concentration of 100 μM), and the mixture was mixed by vigorous pipetting for 5 s, followed by acquisition of the t=0 spectrum. Emission spectra (λex=645 nm, λem=655-750 nm) were collected at 0, 20, 45, 60, 90, and 120 min (see FIG. 24A). Temperature was maintained at 37° C. throughout the experiment by immersing the cuvette in a heated water bath between measurements.
999 μL of a 10.01 μM solution of FAP-1 in 20 mM PBS (pH 7.4) was prepared by diluting a 10 mM DMSO stock solution of FAP-1 into pre-warmed PBS (37° C.) in a 1-cm×1-cm quartz cuvette. 1 μL of a FA stock solution (either 5 mM or 1 mM, freshly prepared by diluting commercial 37 wt. % FA solution with Milli-Q water) or 1 μL of PBS was added (for a final concentration of 5 μM, 1 μM, or 0 μM FA), and the mixture was mixed by vigorous pipetting for 5 s and placed in a 37° C. water bath. Emission spectra were obtained after 120 min. Statistical analyses for multiple comparisons were performed using one-way ANOVA with the Bonferroni correction in the statistical analysis software, R.

[7] = remark: listed apart in the source
Protocol: as §1

HEK293T cells [8] = system: HEK293T cells
Protocol: FIG. 29 depicts a photostability study with FAP-1. A field of HEK293T cells loaded with 10 μM FAP-1 in BSS at 37° C. was irradiated using 50% laser power (dashed line) or 6% laser power (solid line) with a pinhole of 1 airy unit for 100 scans. Emission was normalized to the first scan for each field. Error bars represent standard deviation, n=5.

[9] = in 1% pyridine/toluene; cited from earlier work
HEK293TN cells = details: 3 hrs
Protocol: Prior to imaging, cells were allowed to recover in FA-free buffer for 30 min. […] Because FA is a powerful fixative, cell viability assays were performed to determine the cytotoxicity of FA under experimental conditions. A dye exclusion protocol was employed, utilizing trypan blue to selectively stain and distinguish dead cells from those that were viable. […] To further verify that the cell populations under investigation were indeed alive, DAPI, a cell permeable nuclear and chromosome counterstain, was employed to identify intact nuclei (FIG. 16).

HEK293T cells [10] = details: FA in BSS, 37° C., 30 min
[11] = pH-Fluorescence profile of compound 4; assay type: physicochemical; details: pH 2.0 to 10.4, 25° C.
Protocol: FIG. 7 depicts the pH-Fluorescence profile of compound 4 (as denoted in FIG. 3). Fluorescence intensity was measured at 25° C. for the following pH values and indicated buffers: 50 mM Glycine (2.0, 2.4, 2.7, 3.1, 3.5), 50 mM sodium acetate (4.0, 4.4, 4.8, 5.2, 5.6), 50 mM MES (5.6, 6.0, 6.4, 6.8), 50 mM HEPES (6.8, 7.2, 7.4, 7.8, 8.2), 50 mM Tris (8.2, 8.6, 9.0, 9.5) and 50 mM glycine (9.5, 9.9, 10.4).

With `Cc1cc2c(ccn2C)cc1C1=C2C=CC(=O)C=C2[Si](C)(C)c2c1cc1c3c2CCCN3CCC1` [Compound 3, 9-(1,6-dimethyl-1H-indol-5-yl)-14,14-dimethyl-2,3,5,6,7,14-hexahydro-1H,12H-benzo[5,6]silino[2,3-f]pyrido[3,2,1-ij]quinolin-12-one] the ε [1] was 86000 M⁻¹ cm⁻¹, the λabs [1] was 633 nm and the λem [1] was 649 nm. The “fluorescence (in words)” value ([1]; without the carboxaldehyde) was “non-fluorescent”.
For `c1ccc([C@@H]2C[C@H]2NC2CCNCC2)cc1` [GSK-LSD1], the “effect on FAP-1 fluorescence” value (MCF7 cells; MCF7, 1 μM inhibitor for 20 h) was “attenuated FAP-1 fluorescence”.
For `C=CCC(N)c1cn(C)c2cc(C)c(C3=C4C=CC(=O)C=C4[Si](C)(C)c4c3cc3c5c4CCCN5CCC3)cc12` (stereo not drawn) [Compound 5, 9-(3-(1-aminobut-3-en-1-yl)-1,6-dimethyl-1H-indol-5-yl)-14,14-dimethyl-2,3,5,6,7,14-hexahydro-1H,12H-benzo[5,6]silino[2,3-f]pyrido[3,2,1-ij]quinolin-12-one], the “Φ (quantum efficiency, ΦF)” value [1] was 0.02, the ε [1] was 100000 M⁻¹ cm⁻¹ and the λabs [1] was 633 nm. For the same compound, the λem [1] was 649 nm.
For `C=CCC1NC2(c3ccc(C(=O)O)cc31)c1ccc(N(C)C)cc1[Si](C)(C)c1cc(N(C)C)ccc12` (stereo not drawn) [FAP-1], the “fluorescence turn-on in FA-treated cells over control cells” value (HEK293T cells [2]) was “significant and dose-dependent fluorescence turn-on”, the ε650 ([3]; 20 mM PBS, pH 7.4) was 190 M^1 cm^−1 and the “φfl (quantum yield)” value ([3]; 20 mM PBS, pH 7.4, ZnPc as standard) was 0.36. For the same compound, the λem ([3]; turn-on response to FA) was 662 nm, the λmax ([3]; turn-on response to FA) was 645 nm and the “log Doct/wat” value ([4]; 1-octanol / PBS, mean±standard deviation, triplicate) was 0.53±0.01. The “solubility in aqueous solution” value ([4]; aqueous solution buffered to pH 7.4) was “good solubility”, the fluorescence response ([5]; 10 μM methylglyoxal) was “not responsive” and the fluorescence response ([5]; 100 μM methylglyoxal (super-physiological)) was “small response”. The “turn-on response at saturation” value ([6]; 10 μM FAP-1, 100 μM FA, extended incubation times) was “ca. 45 fold”, the “fold fluorescence turn-on response” value ([6]; 10 μM FAP-1, 100 μM FA, pH 7.4, 37° C., within 1 h) was “ca. 8 fold” and the “in vitro detection limit for FA” value ([6]; 10 μM FAP-1, 2-hour cutoff) was 5 µM. The “selectivity for FA over competing RCS and carbonyl-containing molecules” value ([7]; 10 μM FAP-1, 100 μM analyte (glucose 1 mM), 37° C.) was “good selectivity”, the change in fluorescence ([7]; 100 μM H2O2) was “no change in fluorescence” and the change in fluorescence ([7]; 5 mM glutathione) was “no change in fluorescence”. The photostability (HEK293T cells [8]; 50% laser power) was “slight photobleaching” and the photostability (HEK293T cells [8]; 100 scans with 6% laser power) was “consistent fluorescence intensity”.
In the case of `[Zn+2].c1ccc2c(c1)-c1nc-2nc2[n-]c(nc3nc([n-]c4nc(n1)-c1ccccc1-4)-c1ccccc1-3)c1ccccc21` [ZnPc, zinc phthalocyanine], the “ϕstandard (quantum yield)” value [9] is given as 0.34.
In the case of `N[C@@H]1C[C@H]1c1ccccc1` (racemic) [TCP, tranylcypromine], the “decrease in FAP-1 fluorescence signal compared to control cells” value (MCF7 cells; MCF7, 20 μM inhibitor for 20 h) is reported as “ca. 20%”.
For `C=O` [FA, Formaldehyde], the “dead cells (trypan blue)” value (HEK293TN cells; 1 mM FA) was 5%, the “cells no longer viable (trypan blue)” value (HEK293TN cells; 5 mM FA) was roughly 35% and the “cell viability (propidium iodide assay)” value (HEK293T cells [10]) was “no difference between FA-treated and untreated cells”. For the same compound, the “loss in viability (trypan blue)” value (NS1 cells; NS1, 2.5 mM FA, 3 hrs) was “ca. 12%” and the “cell death (trypan blue)” value (NS1 cells; NS1, 5 mM FA) was “considerable cell death”.
With `Cc1cc2c(cc1C1=C3C=CC(=O)C=C3[Si](C)(C)c3c1cc1c4c3CCCN4CCC1)c(C=O)cn2C` [Compound 4, 5-(14,14-dimethyl-12-oxo-2,3,6,7,12,14-hexahydro-1H,5H-benzo [5,6]silino [2,3-f]pyrido[3,2,1-ij]quinolin-9-yl)-1,6-dimethyl-1H-indole-3-carbaldehyde] the pH-fluorescence profile [11] was “high fluorescence intensity was maintained under physiological conditions”, the “Φ (quantum efficiency, ΦF)” value [1] was 0.13 and the ε [1] was 106000 M⁻¹ cm⁻¹. The λabs [1] was 633 nm, the λem [1] was 649 nm and the “Φ (quantum efficiency, ΦF)” value ([1]; listed as indole-3-carboxaldehyde product) was 0.11.
